In BigSolDB 2.1:

O=C(OCC1c2ccccc2-c2ccccc21)ON1C(=O)CCC1=O
solubility (mole fraction)
Details | 283.15 K | 288.15 K | 293.15 K | 298.15 K | 303.15 K | 308.15 K | 313.15 K | 318.15 K | 323.15 K | 328.15 K
in DMF | 0.00369 | 0.00533 | 0.00719 | 0.00964 | 0.0132 | 0.0177 | 0.023 | 0.0298 | 0.0387 | 0.0499
in DMSO | – | – | 0.00499 | 0.00641 | 0.0084 | 0.0107 | 0.0134 | 0.0167 | 0.0208 | 0.0257
in ethanol | 0.000477 | 0.000571 | 0.000687 | 0.000824 | 0.000979 | 0.00115 | 0.00134 | 0.00155 | 0.00177 | 0.00205
in ethylene glycol | 0.000151 | 0.00019 | 0.000241 | 0.000314 | 0.000396 | 0.00049 | 0.000611 | 0.000748 | 0.00092 | 0.00111
in water | – | – | 5.77e-06 | 7.38e-06 | 9.44e-06 | 1.19e-05 | 1.49e-05 | 1.84e-05 | 2.28e-05 | 2.78e-05
